According to patent publication US20240382471A1, “GLUCAGON-LIKE PEPTIDE-1 RECEPTOR MODULATORS AND USES THEREOF” (HEPAGENE THERAPEUTICS (HK) LIMITED, priority 2021, published 2024):

biological target: GLP1R (Homo sapiens, UniProt P43220); assay: GLP1R/CRE-Luc luciferase reporter gene assay (agonist activity); assay type: cell-based; design: host or cells: HKE293 (so in the source); conditions: HKE293-Human GLP1R/CRE-luc cells, 5 h at 37° C., read-out: EC50 (nM) Assay 2
Method: GLP1R-mediated agonist activity was determined with a cell-based functional assay utilizing a britelite plus luciferase reporter gene assay system. The stable cell line overexpress GLP1R and target response element. The stimulation with GLP1R agonist results in the upregulation of intracellular cAMP, which regulate the activities of cAMP-response element binding protein (CREB) and CREB-Luc. Reagents and equipment used in the assay are listed below, followed by the protocol.
• 1) Cell Line: HKE293-Human GLP1R/CRE-luc • 2) Complete Medium: DMEM+10% FBS+1×Penicillin-Streptomycin+400 μg/mL G418
• a) Seed HKE293-Human GLP1R/CRE-luc cells at 20,000 cells/well into 384 well assay plate (6007680-50, PE) using complete medium and incubate overnight. • b) Prepare 6×compound working solution with Medium. • c) Add 5 μL 6×compound working solution into cell plate, incubate 5 h at 37° C. • d) Add 20 μl britelite plus Luciferase Assay Reagent into each well of 384-well assay plate. • e) Record the luminescence value on Envision plate reader.
• 3.1% Activity is calculated as follow:
% Activity=(Signalcmpd−SignalAve_VC)/(SignalAve_PC−SignalAve_VC)×100. • 3.2 Calculate EC50 and Plot effect-dose curve of cmpds:
Y=Bottom+(Top−Bottom)/(1+10^((Log EC50−X)*HillSlope)) • X: log of agonist concentration; Y: % Activity.

GLP1R, sequence (P43220 24-463): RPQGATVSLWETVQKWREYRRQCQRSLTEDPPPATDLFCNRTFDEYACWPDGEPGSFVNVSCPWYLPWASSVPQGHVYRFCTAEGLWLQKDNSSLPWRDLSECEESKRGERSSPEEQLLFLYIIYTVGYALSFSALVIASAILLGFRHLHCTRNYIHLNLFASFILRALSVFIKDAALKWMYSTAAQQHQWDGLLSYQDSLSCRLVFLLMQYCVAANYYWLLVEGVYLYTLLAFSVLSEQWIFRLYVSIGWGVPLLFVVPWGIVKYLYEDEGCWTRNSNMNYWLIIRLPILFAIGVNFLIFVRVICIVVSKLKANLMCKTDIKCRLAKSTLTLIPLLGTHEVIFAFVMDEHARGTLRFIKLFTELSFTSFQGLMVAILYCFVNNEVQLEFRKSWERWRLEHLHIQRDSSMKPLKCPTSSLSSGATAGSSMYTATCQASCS

Row | SMILES | EC50 [nM]
1 | COc1cc(C#N)ccc1COc1cccc(C23CCN(Cc4nc5ccc(C(=O)O)cc5n4C[C@@H]4CCO4)CC2C3)n1 (single isomer, unassigned) [Compound 1-6-A] | 5.55
2 | COc1cc(C#N)ccc1COc1cccc(C23CCN(Cc4nc5ccc(C(=O)O)cc5n4C[C@@H]4CCO4)CC2C3)n1 (single isomer, unassigned) [Compound 1-6-B] | 4.98
3 | COc1cc(C#N)ccc1COc1ccnc(C23CCN(Cc4nc5ccc(C(=O)O)cc5n4C[C@@H]4CCO4)CC2C3)n1 (single isomer, unassigned) [Compound 1-26-A] | 102
4 | COc1cc(C#N)ccc1COc1ccnc(C23CCN(Cc4nc5ccc(C(=O)O)cc5n4C[C@@H]4CCO4)CC2C3)n1 (single isomer, unassigned) [Compound 1-26-B] | 7.54
5 | COc1cc(C#N)ccc1COc1ccnc(C23CCN(Cc4nc5c(OC)cc(C(=O)O)cc5n4C[C@@H]4CCO4)CC2C3)n1 (single isomer, unassigned) [Compound 1-38-A] | 16
6 | COc1cc(C#N)ccc1COc1ccnc(C23CCN(Cc4nc5c(OC)cc(C(=O)O)cc5n4C[C@@H]4CCO4)CC2C3)n1 (single isomer, unassigned) [Compound 1-38-B] | 0.28
7 | COc1cc(Cl)ccc1COc1cccc(C23CCN(Cc4nc5ccc(C(=O)O)cc5n4C[C@@H]4CCO4)CC2C3)n1 (stereo partly drawn) [Compound 1-12, 2-((6-(6-((4-chloro-2-methoxybenzyl)oxy)pyridin-2-yl)-3-azabicyclo[4.1.0]heptan-3-yl)methyl)-1-(((S)-oxetan-2-yl)methyl)-1H-benzo[d]imidazole-6-carboxylic acid] | 26.4
8 | COc1nc(C#N)ccc1COc1cccc(C23CCN(Cc4nc5ccc(C(=O)O)cc5n4C[C@@H]4CCO4)CC2C3)n1 (stereo partly drawn) [Compound 1-13, 2-((6-(6-((6-cyano-2-methoxypyridin-3-yl)methoxy)pyridin-2-yl)-3-azabicyclo[4.1.0]heptan-3-yl)methyl)-1-(((S)-oxetan-2-yl)methyl)-1H-benzo[d]imidazole-6-carboxylic acid] | 35.8
9 | COc1cc(C(F)(F)F)ccc1COc1cccc(C23CCN(Cc4nc5ccc(C(=O)O)cc5n4C[C@@H]4CCO4)CC2C3)n1 (stereo partly drawn) [Compound 1-14, 2-((6-(6-((2-methoxy-4-(trifluoromethyl)benzyl)oxy)pyridin-2-yl)-3-azabicyclo[4.1.0]heptan-3-yl)methyl)-1-(((S)-oxetan-2-yl)methyl)-1H-benzo[d]imidazole-6-carboxylic acid] | 17.4
10 | COCc1ccc(COc2cccc(C34CCN(Cc5nc6ccc(C(=O)O)cc6n5C[C@@H]5CCO5)CC3C4)n2)c(OC)c1 (stereo partly drawn) [Compound 1-15, 2-((6-(6-((2-methoxy-4-(methoxymethyl)benzyl)oxy)pyridin-2-yl)-3-azabicyclo[4.1.0]heptan-3-yl)methyl)-1-(((S)-oxetan-2-yl)methyl)-1H-benzo[d]imidazole-6-carboxylic acid] | 439
11 | COc1cc(Br)ccc1COc1cccc(C23CCN(Cc4nc5ccc(C(=O)O)cc5n4C[C@@H]4CCO4)CC2C3)n1 (stereo partly drawn) [Compound 1-16, 2-((6-(6-((4-bromo-2-methoxybenzyl)oxy)pyridin-2-yl)-3-azabicyclo[4.1.0]heptan-3-yl)methyl)-1-(((S)-oxetan-2-yl)methyl)-1H-benzo[d]imidazole-6-carboxylic acid] | 24.8
12 | COc1cc(C#N)ccc1COc1cccc(C23CCN(Cc4nc5c(C#N)cc(C(=O)O)cc5n4C[C@@H]4CCO4)CC2C3)n1 (stereo partly drawn) [Compound 1-17, 4-cyano-2-((6-(6-((4-cyano-2-methoxybenzyl)oxy)pyridin-2-yl)-3-azabicyclo[4.1.0]heptan-3-yl)methyl)-1-(((S)-oxetan-2-yl)methyl)-1H-benzo[d]imidazole-6-carboxylic acid] | 6.66
13 | COc1cc(C#N)ccc1COc1cccc(C23CCN(Cc4nc5c(C)cc(C(=O)O)cc5n4C[C@@H]4CCO4)CC2C3)n1 (stereo partly drawn) [Compound 1-18, 2-((6-(6-((4-cyano-2-methoxybenzyl)oxy)pyridin-2-yl)-3-azabicyclo[4.1.0]heptan-3-yl)methyl)-4-methyl-1-(((S)-oxetan-2-yl)methyl)-1H-benzo[d]imidazole-6-carboxylic acid] | 13.4
14 | COc1cc(C#N)ccc1COc1cccc(C23CCN(Cc4nc5c(C6CC6)cc(C(=O)O)cc5n4C[C@@H]4CCO4)CC2C3)n1 (stereo partly drawn) [Compound 1-19, 2-((6-(6-((4-cyano-2-methoxybenzyl)oxy)pyridin-2-yl)-3-azabicyclo[4.1.0]heptan-3-yl)methyl)-4-cyclopropyl-1-(((S)-oxetan-2-yl)methyl)-1H-benzo[d]imidazole-6-carboxylic acid] | 19
15 | COc1cc(C#N)ccc1COc1cccc(C23CCN(Cc4nc5c(C(C)=O)cc(C(=O)O)cc5n4C[C@@H]4CCO4)CC2C3)n1 (stereo partly drawn) [Compound 1-20, 4-acetyl-2-((6-(6-((4-cyano-2-methoxybenzyl)oxy)pyridin-2-yl)-3-azabicyclo[4.1.0]heptan-3-yl)methyl)-1-(((S)-oxetan-2-yl)methyl)-1H-benzo[d]imidazole-6-carboxylic acid] | 9.67
16 | COc1cc(C#N)ccc1COc1cncc(C23CCN(Cc4nc5ccc(C(=O)O)cc5n4C[C@@H]4CCO4)CC2C3)n1 (stereo partly drawn) [Compound 1-21, 2-((6-(6-((4-cyano-2-methoxybenzyl)oxy)pyrazin-2-yl)-3-azabicyclo[4.1.0]heptan-3-yl)methyl)-1-(((S)-oxetan-2-yl)methyl)-1H-benzo[d]imidazole-6-carboxylic acid] | 39.1
17 | COc1cc(C#N)ccc1COc1cccc(C23CCN(Cc4nc5c(OC(F)(F)F)cc(C(=O)O)cc5n4C[C@@H]4CCO4)CC2C3)n1 (stereo partly drawn) [Compound 1-22, 2-((6-(6-((4-cyano-2-methoxybenzyl)oxy)pyridin-2-yl)-3-azabicyclo[4.1.0]heptan-3-yl)methyl)-1-(((S)-oxetan-2-yl)methyl)-4-(trifluoromethoxy)-1H-benzo[d]imidazole-6-carboxylic acid] | 14.4
18 | COc1cc(C#N)ccc1COc1cccc(C23CCN(Cc4nc5c(F)cc(C(=O)O)cc5n4C[C@@H]4CCO4)CC2C3)n1 (stereo partly drawn) [Compound 1-23, 2-((6-(6-((4-cyano-2-methoxybenzyl)oxy)pyridin-2-yl)-3-azabicyclo[4.1.0]heptan-3-yl)methyl)-4-fluoro-1-(((S)-oxetan-2-yl)methyl)-1H-benzo[d]imidazole-6-carboxylic acid] | 3.05
19 | COc1cc(C#N)ccc1COc1cccc(C23CCN(Cc4nc5c(OC)cc(C(=O)O)cc5n4C[C@@H]4CCO4)CC2C3)n1 (stereo partly drawn) [Compound 1-24, 2-((6-(6-((4-cyano-2-methoxybenzyl)oxy)pyridin-2-yl)-3-azabicyclo[4.1.0]heptan-3-yl)methyl)-4-methoxy-1-(((S)-oxetan-2-yl)methyl)-1H-benzo[d]imidazole-6-carboxylic acid] | 0.37
20 | COc1cc(C#N)ccc1COc1cccc(C23CCN(Cc4nc5c(Cl)cc(C(=O)O)cc5n4C[C@@H]4CCO4)CC2C3)n1 (stereo partly drawn) [Compound 1-25, 4-chloro-2-((6-(6-((4-cyano-2-methoxybenzyl)oxy)pyridin-2-yl)-3-azabicyclo[4.1.0]heptan-3-yl)methyl)-1-(((S)-oxetan-2-yl)methyl)-1H-benzo[d]imidazole-6-carboxylic acid] | 0.95
21 | COc1cc(C#N)ccc1COc1nccc(C23CCN(Cc4nc5ccc(C(=O)O)cc5n4C[C@@H]4CCO4)CC2C3)n1 (stereo partly drawn) [Compound 1-27, 2-((6-(2-((4-cyano-2-methoxybenzyl)oxy)pyrimidin-4-yl)-3-azabicyclo[4.1.0]heptan-3-yl)methyl)-1-(((S)-oxetan-2-yl)methyl)-1H-benzo[d]imidazole-6-carboxylic acid] | 11.7
22 | COc1cc(C#N)ccc1COc1nc(C23CCN(Cc4nc5c(OC)cc(C(=O)O)cc5n4C[C@@H]4CCO4)CC2C3)ccc1F (stereo partly drawn) [Compound 1-28, 2-((6-(6-((4-cyano-2-methoxybenzyl)oxy)-5-fluoropyridin-2-yl)-3-azabicyclo[4.1.0]heptan-3-yl)methyl)-4-methoxy-1-(((S)-oxetan-2-yl)methyl)-1H-benzo[d]imidazole-6-carboxylic acid] | 0.46
23 | COc1c(COc2cccc(C34CCN(Cc5nc6ccc(C(=O)O)cc6n5C[C@@H]5CCO5)CC3C4)n2)ccc(C#N)c1F (stereo partly drawn) [Compound 1-29, 2-((6-(6-((4-cyano-3-fluoro-2-methoxybenzyl)oxy)pyridin-2-yl)-3-azabicyclo[4.1.0]heptan-3-yl)methyl)-1-(((S)-oxetan-2-yl)methyl)-1H-benzo[d]imidazole-6-carboxylic acid] | 168
24 | COc1cc(C#N)ccc1COc1nc(C23CCN(Cc4nc5c(OC)cc(C(=O)O)cc5n4C[C@@H]4CCO4)CC2C3)ccc1OC (stereo partly drawn) [Compound 1-30, 2-((6-(6-((4-cyano-2-methoxybenzyl)oxy)-5-methoxypyridin-2-yl)-3-azabicyclo[4.1.0]heptan-3-yl)methyl)-4-methoxy-1-(((S)-oxetan-2-yl)methyl)-1H-benzo[d]imidazole-6-carboxylic acid] | 28.1
